PMC7947795, “Rapamycin-Loaded Lipid Nanocapsules Induce Selective Inhibition of the mTORC1-Signaling Pathway in Glioblastoma Cells” (Frontiers in Bioengineering and Biotechnology, 2021)

How the values were obtained:
[1] = Rapamycin solubility assay in oils (RP-HPLC); format: physicochemical
Description: […] […] The mixture of 90% acetonitrile and 10% water (v/v) was used as a mobile phase, and delivered at a flow rate of 2.0 mL/min. The injection volume was 10 μL and the retention time was about 2.3 min.

U87MG cells [2] = assay: MTS cytotoxicity assay; format: cell-based; details: Homo sapiens, U-87 MG, serum-free medium, 4 h treatment, read at 48 h
Description: Two assays were performed to determine the cytotoxicity effect of LNC-rapa on the glioblastoma cell line U87MG:MTS (3-(4,5-dimethylthiazol-2-yl)-5-(3-carboxymethoxyphenyl)-2-(4-sulfophenyl)-2H-tetrazolium) (Promega, Charbonnières, France) and clonogenic assay by crystal violet coloration (Sigma-Aldrich).
For the MTS assay, U87MG cells (5 × 10^4 cells/mL) harvested in the exponential growth phase were seeded in a 24-well plate in DMEM medium with 10% FBS, in humidified atmosphere (5% CO2) at 37°C. Once the cells incubated in the exponential growth phase, serum-contained medium was removed and replaced by serum-deprived DMEM supplemented with 1% N1 supplement (Sigma-Aldrich). […] 8Gy radiation was performed 6 h after the onset of initial treatment by Faxitron CP-160 (Faxitron X-rays, Lincolnshire, UK). Medium was changed every day. Forty-eight hours following the treatment, MTS reagent was diluted (1:5) in U87MG cell medium and incubated for 2 h at 37°C. The absorbance was measured at 492 nm using Multiskan® microplate spectrophotometer (Thermo Scientific).
Depending on the condition considered, the cells were placed throughout the experiment in a conventional 21% O2 incubator at 37°C/5% CO2 (normoxia) or 0.4% O2 (hypoxia) at 37°C/5% CO2 in an InVivO2 400 SCI-tive hypoxia workstation (Ruskinn); they are only placed in isolated flasks for the duration of the irradiations.

U87MG cells [3] = assay: Clonogenic assay by crystal violet coloration; format: cell-based, Human; details: 1 μM
Description: Irradiation was performed with the CP-160 cabinet x-ray system (Faxitron, Edimex, Le Plessis Grammoire, Angers, France) which delivers a dose of 1,5 grays by min. […] Irradiation was performed with cells covered.
Once the cells incubated in the exponential growth phase, serum-contained medium was removed and replaced by serum-deprived DMEM supplemented with 1 % N1 supplement. […] 8Gy radiation was performed 6 h after the treatment by Faxitron CP-160.

[4] = tested on: mTOR phosphorylation (Ser2448); assay: Western blot p-mTOR/HSC70; format: cell-based, Human; details: U87MG, 1 μM, serum-free medium, 21 and 0.4% O2, 16 h
[5] = tested on: HIF-1α protein expression; assay: Western blot HIF-1α; format: cell-based, Human; details: U87MG, 1 μM, 21 and 0.4% O2, 0Gy
Description: (§1) U87MG cells (2.4 × 10^5 cells/mL) harvested in the exponential growth phase were seeded in dishes in DMEM medium with 10% FBS, at 37°C in humidified atmosphere containing 5% CO2 and 21 or 0.4% O2. Once the cells incubated in the exponential growth phase, serum-contained medium was removed and replaced by serum-deprived DMEM supplemented with 1% N1 supplement. […] 8Gy radiation was performed 6 h after the treatment by Faxitron CP-160 (cf. section Irradiation Procedure).
(§2) Cells were scrapped and lysed by sonication for 10 s.
(§3) Equal amounts of protein from each sample, estimated by the Bio-Rad Protein Assay (Richmond, CA), were separated by electrophoresis through a 4–20% SDS-polyacrylamide gel (Mini-protean® TGX™ Ge, BioRad), transferred to PVDF membranes (AmershamHybond, GE Healthcare, Buckinghamshire, UK) and blocked with 4% non-fat dry milk in 1X TBS plus 0.1% Tween 20 at RT for 1 h. The membranes were washed and incubated with a primary antibody diluted in 2% BSA in 1X TBS plus 0.1% Tween 20 overnight at 4°C. The membranes were then washed and incubated again for 1 h at RT with peroxidase-conjugated anti-rabbit or anti-mouse secondary antibody. The bound antibody was detected using the enhanced chemiluminescence reagent kit SuperSignal West Femto (Thermo Scientific, Waltham, MA, USA) and read with a bioluminescence detector Image Quant Las 4000 (GE Healthcare, USA).

[6] = tested on: phosphorylation of Akt on Ser473; assay: Western blot Akt-p; format: cell-based, Human; details: U87MG, 1 μM, 21 and 0.4% O2, 0Gy
Description: as §1, §2, §3

[7] = Spectral analysis of rapamycin stability in Labrafac; format: physicochemical; details: short cycles of heating and cooling at 70°C
Text: Spectral analysis was then made by use of the CLARIOstar microplate reader (BMG Labtech, Champigny-sur-Marne, France).

[8] = no reference given; cited from earlier work
[9] = tested on: 9L cells (rat glioma cells); design: method as in Tyler et al., 2011; details: in vitro, ref Tyler et al., 2011; cited from earlier work

## CO[C@H]1C[C@@H]2CC[C@@H](C)[C@@](O)(O2)C(=O)C(=O)N2CCCC[C@H]2C(=O)O[C@H]([C@H](C)C[C@@H]2CC[C@@H](O)[C@H](OC)C2)CC(=O)[C@H](C)/C=C(\C)[C@@H](O)[C@@H](OC)C(=O)[C@H](C)C[C@H](C)/C=C/C=C/C=C/1C [Rapamycin]
[1]; 90°C, 3 h, whatever the oil used
  Degradation at 90°C in oil: completely degraded
[1]; Captex 8000, 90°C
  Dissolution rate: 0%
[1]; Captex 8000, 90°C, initial 16.8 mg/mL
  Dissolved rapamycin: 0 mg/mL
[1]; Captex 8000, RT
  Dissolution rate: 9.5%
[1]; Captex 8000, RT, initial 19.0 mg/mL
  Dissolved rapamycin: 1.8 mg/mL
[1]; Labrafac, 90°C
  Dissolution rate: 0%
[1]; Labrafac, 90°C, initial 21.1 mg/mL
  Dissolved rapamycin: 0 mg/mL
[1]; Labrafac, RT
  Dissolution rate: 6.3%
[1]; Labrafac, RT, initial 24.0 mg/mL
  Dissolved rapamycin: 1.5 mg/mL
[1]; Miglyol 812, 90°C
  Dissolution rate: 0%
[1]; Miglyol 812, 90°C, initial 17.1 mg/mL
  Dissolved rapamycin: 0 mg/mL
[1]; Miglyol 812, RT
  Dissolution rate: 7.3%
[1]; Miglyol 812, RT, initial 19.2 mg/mL
  Dissolved rapamycin: 1.4 mg/mL
U87MG cells [2]; 0.4% pO2 (hypoxia)
  IC50: 34.6 µM
U87MG cells [2]; 21% pO2 (normoxia)
  IC50: 20.5 µM
U87MG cells [3]; 8Gy 6 h after treatment, 21 or 0.4% O2
  Synergistic effect with radiation treatment (clonogenic assay): do not exert any synergistic effect
U87MG cells [3]; 21 or 0.4% O2, 10 days, significant at 0.4% O2
  Effect on cell survival (clonogenic assay): only moderate effects
[4]
  Inhibition of mTOR phosphorylation (Ser2448): strong inhibition of mTOR phosphorylation
[5]
  HIF-1α protein expression: reduced
[6]
  Akt-p protein level (Ser473): enhance Akt-p protein level
[7]
  Stability of rapamycin in Labrafac: confirmed
[8]
  logP: 4.3
[9]
  concentration causing growth inhibition: 0.01 µg/mL
